# Article PMC9037111, “Structure-based design, synthesis, and biological evaluation of novel piperine–resveratrol hybrids as antiproliferative agents targeting SIRT-2” (RSC Advances, 2021)
# Read-outs that look alike come from different tables or passages of the source.
# Tests used:
# Test in all cases: cells
# Set-up in all cases: species or system NCI-60 human tumour cell lines; NCI-60 one-dose screen at 10 uM, percent growth inhibition versus untreated control cells
# HCT-15 = conditions: Homo sapiens, HCT-15, growth inhibition, one dose
# Description: (§1) The antiproliferative activity of the target compounds 5a–h was screened against a panel of 60 cancer cell lines according to NCI-guidelines at concentration of 10 μM. The results for each compound (Table 1) were recorded as the percent of growth inhibition of treated cells compared to untreated control cells. […] In addition, 5b recorded significant activity against leukemia cancer cell lines K-562 and MOLT-4, Non-small cell lung cancer cell lines NCI-H322M and NCI-H460, Colon cancer cell lines COLO 205, HCT-15 and HCT-116, CNS cancer cell lines SF-295 and SF-539, Melanoma cancer cell lines LOX IMVI and UACC-62, Ovarian cancer cell lines NCI/ADR-RES, OVCAR-3, and OVCAR-4, Renal cancer cell lines CAKI-1, ACHN, and UO-31, and Breast cancer MCF7 cell line with growth inhibition percentage between 80 to 95. […] The methodology of the NCI anticancer screening has been described in detail elsewhere (https://dtp.cancer.gov/).[52]
# MCF7 = conditions: Homo sapiens, MCF7, growth inhibition, one dose
# Description: as §1
# KM12 = conditions: Homo sapiens, KM12, growth inhibition, one dose
# Description: as §1
# UACC-62 = conditions: Homo sapiens, UACC-62, growth inhibition, one dose
# Description: as §1
# CAKI-1 = conditions: Homo sapiens, CAKI-1, growth inhibition, one dose
# Description: as §1
# SNB-75 = conditions: Homo sapiens, SNB-75, growth inhibition, one dose
# Description: as §1
# PC-3 = conditions: Homo sapiens, PC-3, growth inhibition, one dose
# Description: as §1
# MOLT-4 = conditions: Homo sapiens, MOLT-4, growth inhibition, one dose
# Description: as §1
# OVCAR-4 = conditions: Homo sapiens, OVCAR-4, growth inhibition, one dose
# Description: as §1
# BT-549 = conditions: Homo sapiens, BT-549, growth inhibition, one dose
# Description: as §1
# NCI-H322M = conditions: Homo sapiens, NCI-H322M, growth inhibition, one dose
# Description: as §1
# U251 = conditions: Homo sapiens, U-251, growth inhibition, one dose
# Description: as §1
# A549/ATCC = conditions: Homo sapiens, A549, growth inhibition, one dose
# Description: as §1
# HOP-92 = conditions: Homo sapiens, HOP-92, growth inhibition, one dose
# Description: as §1
# HCC-2998 = conditions: Homo sapiens, HCC 2998, growth inhibition, one dose
# Description: as §1
# ACHN = conditions: Homo sapiens, ACHN, growth inhibition, one dose
# Description: as §1
# 786-0 = conditions: Homo sapiens, 786-0, growth inhibition, one dose
# Description: as §1
# SN12C = conditions: Homo sapiens, SN12C, growth inhibition, one dose
# Description: as §1
# [1] = read-out: Growth% inhibition / 5d
# [2] = read-out: Growth% inhibition / 5a
# [3] = read-out: Growth% inhibition / 5b
# [4] = read-out: Growth% inhibition / 5h
compound,measurement,setting,value
"CN(C)c1ccc(C=NNC(=O)/C=C/C=C/c2ccc3c(c2)OCO3)cc1 (mixture of isomers) [5d, (2E,4E)-5-(Benzo[d][1,3]dioxol-5-yl)-N′-((E/Z)-4-(dimethylamino)-benzylidene)penta-2,4-dienehydrazide]",inhibition at 10 µM,HCT-15; [1],24.2%
same,inhibition at 10 µM,MCF7; [1],43.6%
same,inhibition at 10 µM,KM12; [1],14.2%
same,inhibition at 10 µM,UACC-62; [1],16.1%
same,inhibition at 10 µM,CAKI-1; [1],24.6%
same,inhibition at 10 µM,SNB-75; [1],25.7%
same,inhibition at 10 µM,PC-3; [1],15%
"O=C(/C=C/C=C/c1ccc2c(c1)OCO2)NN=Cc1ccc(O)cc1 [5a, (2E,4E)-5-(Benzo[d][1,3]dioxol-5-yl)-N′-((E,Z)-4-hydroxybenzylidene)penta-2,4-dienehydrazide]",inhibition at 10 µM,MOLT-4; [2],23.5%
same,inhibition at 10 µM,OVCAR-4; [2],12.7%
same,inhibition at 10 µM,HCT-15; [2],39.7%
same,inhibition at 10 µM,BT-549; [2],21.5%
same,inhibition at 10 µM,NCI-H322M; [2],18.5%
same,inhibition at 10 µM,MCF7; [2],28.8%
same,inhibition at 10 µM,KM12; [2],33.4%
same,inhibition at 10 µM,UACC-62; [2],28.5%
same,inhibition at 10 µM,CAKI-1; [2],25.1%
same,inhibition at 10 µM,SNB-75; [2],27%
same,inhibition at 10 µM,PC-3; [2],19.8%
"O=C(/C=C/C=C/c1ccc2c(c1)OCO2)N/N=C/c1ccc(O)cc1O [5b, (2E,4E)-5-(Benzo[d][1,3]dioxol-5-yl)-N′-((E)-2,4-dihydroxybenzylidene)penta-2,4-dienehydrazide]",inhibition at 10 µM,U251; [3],68.7%
same,inhibition at 10 µM,MOLT-4; [3],86.7%
same,inhibition at 10 µM,OVCAR-4; [3],90.8%
same,inhibition at 10 µM,HCT-15; [3],83%
same,inhibition at 10 µM,BT-549; [3],72.7%
same,inhibition at 10 µM,A549/ATCC; [3],63.9%
same,inhibition at 10 µM,NCI-H322M; [3],82.2%
same,inhibition at 10 µM,MCF7; [3],85.9%
same,inhibition at 10 µM,HOP-92; [3],46.6%
same,inhibition at 10 µM,HCC-2998; [3],61.1%
same,inhibition at 10 µM,ACHN; [3],85.6%
same,inhibition at 10 µM,786-0; [3],71%
same,inhibition at 10 µM,KM12; [3],76.6%
same,inhibition at 10 µM,UACC-62; [3],85.7%
same,inhibition at 10 µM,CAKI-1; [3],90.3%
same,inhibition at 10 µM,SNB-75; [3],36%
same,inhibition at 10 µM,PC-3; [3],62%
same,inhibition at 10 µM,SN12C; [3],67.2%
"C/C(=N\NC(=O)/C=C/C=C/c1ccc2c(c1)OCO2)c1ccc(Br)cc1 [5h, (2E,4E)-5-(Benzo[d][1,3]dioxol-5-yl)-N′-((E)-1-(4-bromophenyl)ethylidene)penta-2,4-dienehydrazide]",inhibition at 10 µM,U251; [4],16%
same,inhibition at 10 µM,MOLT-4; [4],25.3%
same,inhibition at 10 µM,OVCAR-4; [4],65.2%
same,inhibition at 10 µM,HCT-15; [4],36.3%
same,inhibition at 10 µM,A549/ATCC; [4],12.5%
same,inhibition at 10 µM,NCI-H322M; [4],36.5%
same,inhibition at 10 µM,MCF7; [4],38.7%
same,inhibition at 10 µM,HOP-92; [4],11.5%
same,inhibition at 10 µM,HCC-2998; [4],10.8%
same,inhibition at 10 µM,ACHN; [4],24.1%
same,inhibition at 10 µM,786-0; [4],14.6%
same,inhibition at 10 µM,KM12; [4],24.9%
same,inhibition at 10 µM,UACC-62; [4],28.5%
same,inhibition at 10 µM,CAKI-1; [4],28.1%
same,inhibition at 10 µM,SNB-75; [4],68.1%
same,inhibition at 10 µM,PC-3; [4],30.9%
same,inhibition at 10 µM,SN12C; [4],12.4%
